Assay results from patent US20080161232A1, “C5a Receptor Antagonist” (JERINI AG, priority 2005, published 2008).
Where two headings read alike, the source gives them in different places. Starred links: 1 amine or outer side, 2 acyl side, 3 side chain; linkers in the order of their positions; H or OH if unused. Positions of bridges follow the written chain, without caps; N, C: chain ends. Non-standard residues stand in square brackets, D forms with d. Residues, ends and D or L forms follow the SMILES beside them. X1 = COC1O[C@H](C(=O)[*:2])[C@@H](O)[C@H](O)[C@H]1N[*:1]; Orn(2-imidazolinyl) = N[C@@H](CCCNC1=NCCN1)C(=O)O; Bta = N[C@@H](Cc1csc2ccccc12)C(=O)O; dCha = N[C@H](CC1CCCCC1)C(=O)O; AllylGly = C=CC[C@H](N)C(=O)O; Nle = CCCC[C@H](N)C(=O)O; Orn = NCCC[C@H](N)C(=O)O; Aze = O=C(O)[C@@H]1CCN1

Columns and labels:
C5aR = biological target: T1, C5aR (Homo sapiens, UniProt P21730); conditions: PMN membranes, cited from earlier work
T1 construct: measurements with isolated membranes from polymorphonuclear neutrophilic granulocytes (PMN membranes); host or cells: isolated PMN membranes (endogenous receptor)
T1 sequence (P21730 1-350): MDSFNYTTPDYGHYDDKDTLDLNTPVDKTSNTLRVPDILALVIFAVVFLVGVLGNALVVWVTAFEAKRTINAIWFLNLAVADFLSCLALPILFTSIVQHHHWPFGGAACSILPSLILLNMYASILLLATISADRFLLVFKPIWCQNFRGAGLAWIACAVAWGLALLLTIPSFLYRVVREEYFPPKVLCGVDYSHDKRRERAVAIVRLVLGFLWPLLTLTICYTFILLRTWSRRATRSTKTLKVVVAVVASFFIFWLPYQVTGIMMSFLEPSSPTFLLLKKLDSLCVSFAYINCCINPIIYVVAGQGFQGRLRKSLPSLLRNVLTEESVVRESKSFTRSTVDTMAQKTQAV

[1] = Solubility determination for selected C5aR-antagonists; format: physicochemical; conditions: for Solubility in 20 mM HEPES pH 7.4 (% of 200 μM): 20 mM HEPES pH 7.4, 24 h at RT
Description: Solubility Determination for Selected C5aR-Antagonists
[…] The undissolved part was removed by centrifugation after 24 h. The UV-absorption of the supernatant was measured and compared to a reference solution of the compound in 60% MeOH.

human C5aR(CD88) [2] = biological target: T2, human C5aR(CD88) (Homo sapiens, UniProt P21730); assay: Determination of the IC50 value in an enzyme release assay (functional assay, antagonistic activity); format: cell-based; conditions: for inhibitory activity (in words): functional assay of example 11, noteworthy = IC50 less than 200 nM; for IC50: antagonistic activity, IC50 group in enzyme release assay, RBL cells expressing human C5aR(CD88), read-out: activity (group)
T2 construct: expressed in transfected cells; host or cells: rat basophilic leukemia cells (RBL)
T2 sequence (P21730 1-350): T1 sequence (P21730 1-350)

human C5aR(CD88) [3] = biological target: T2, human C5aR(CD88); assay: Determination of EC50-values in an enzyme release assay (agonistic activity); format: cell-based; conditions: for agonistic activity (in words): cellular assay, up to a concentration of at least 1430 nM; for EC50: agonistic activity, no C5a added, read-out: EC50
Description: The assay procedure was described by Kohl (Kohl 1997 The Anaphylatoxins. In: Dodds, A. W., Sim, R. B. (Eds.), Complement: A Practical Approach. Oxford, pp. 135-163). Basophilic leukemia cells from rats (RBL), which express the human C5aR(CD88), were cultivated in DMEM with 10% fetal bovine serum, 100 U/ml penicillin, 100 μg/ml streptomycin and 2 mM glutamine (all components of the media from Biochrome, Berlin) to confluence at 37° C. and 10% CO2. The following specifications refer to single cell culture flask having a surface of 75 cm^2. Medium was decanted from cells. Cells were washed with 10 ml PBS (Dulbecco's PBS, Biochrome) and subsequently overlayed with 3 ml Cell Dissociation Solution (CDS, Sigma). Cells were incubated for 1 min at room temperature. Subsequently, CDS was removed and the cells were further incubated for 10-15 min at 37° C. for dissociation. In the assay, 20 μl of the solution containing the compound to be tested were used. This solution should not contain more than 2.8% DMSO. For the dilution process, the compounds were diluted in ⅓ or ½ steps. To 20 μl compound solution 75 μl of the RBL-cells were added, which were treated as follows: after dissociation cells were detached and warmed at 37° C. in 10 ml HAG-CM (20 mM HEPES; 125 mM NaCl, 5 mM KCl, 1 mM CaCl2, 1 mM MgCl2, 0,5 mM Glucose, 0,25% BSA. HEPES-preparation: 2.3 g/l HEPES-salt +2.66 g/l HEPES acid). Cells were counted and centrifuged (200×g, 10 min). The cell pellet was resuspended in preheated HAG-CM (i.e. Hepes-buffer NaCl-glucose-solution with calcium and magnesium), and the cell density was adjusted to 2×10^6 cells/ml. The cells were incubated at 37° C. for 5 min. Per ml cell suspension 27 μl of a cytochalasin B-solution were added (100 μg/ml in DMSO, Sigma). The cells were incubated for further 3 min at 37° C. 75 μl of the cell suspension were added to 20 μl compound solution leading to a volume of 95 μl per well. After incubation of the cells for 10 min at 37° C. 10 μl hrC5a (10.5 nM in HAG-CM, Sigma) per well were added. The cells were incubated for additional 5 min at 37° C. The mtp was then transferred to ice and centrifuged for 3 min at 4° C. with 1200×g. 75 μl of the supernatant were added to 100 μl substrate-solution (2.7 mg/ml p-nitrophenyl-N-acetyl-β-D-glucosaminide (Sigma) in 42.5 mM Na-acetate pH 4.5). The mtp was incubated for further 60 min at 37° C. 75 μl 0.4 M glycine pH 10.4 were added per well. The mtp was transferred into a reader and the absorption at 405 nm was measured. IC50-values were obtained following the equation; y=((A-D)/(1+(x/C)^B))+D.
Determination of EC50-Values in an Enzyme Release Assay
The determination of EC50-values was performed according to the procedure given in example II, with the exception that 30 μl of the test compound need to be mixed with 75 μl of the cell suspension mentioned in example 11. Neither preincubation nor addition of C5a for stimulation of enzyme release is needed.

[4] = examples of WO 92/12168, read-out: IC50 (binding to C5aR), WO 92/12168

Compound	Solubility in 20 mM HEPES pH 7.4 (% of 200 μM) [1]	inhibitory activity (in words) (human C5aR(CD88) [2])	agonistic activity (in words) (human C5aR(CD88) [3])	IC50 (human C5aR(CD88) [2]) [nM]	EC50 (human C5aR(CD88) [3]) [nM]	also measured
(N-Methyl)Phe-Lys-Pro-cha-ψ55 CH2—N(CH2CH2C6H5)}-Arg-OH						IC50 (C5aR; [4]): 360 nM
CCCC[C@@H]1NC(=O)[C@H](Cc2c[nH]c3ccccc23)NC(=O)[C@@H](CC2CCCCC2)NC(=O)[C@@H]2CCCN2C(=O)[C@@H](NC(=O)[C@H](Cc2ccccc2)NC(=O)[C@H](CCCCN)NC(C)=O)CCCNC1=O [Compound 43, Ac-Lys-Phe-[Orn-Pro-cha-Trp-Nle]] (Ac-KF[Orn]P[dCha]W[Nle]; lactam 3-C)	93 % of 200 μM	noteworthy inhibitory activity	pure antagonists			
CCCC[C@@H]1NC(=O)[C@H](Cc2c[nH]c3ccccc23)NC(=O)[C@@H](CC2CCCCC2)NC(=O)[C@@H]2CCCN2C(=O)[C@@H](NC(=O)[C@H](Cc2ccccc2)NC(=O)[C@H]2OC(OC)[C@H](NC(C)=O)[C@@H](O)[C@@H]2O)CCCNC1=O (stereo partly drawn) [Compound 4, X-Phe-[Orn-Pro-cha-Trp-Nle]; X = 2-acetamido-1-methyl-glucuronyl] (Ac-[X1]F[Orn]P[dCha]W[Nle]; lactam 3-C)	84 % of 200 μM					solubility in aqueous HEPES buffer (pH 7.4) [1]: 84%
(N-Ethyl)Phe-Lys-Ala-Cha-Ala-Leu-N-Methyl(D)ala-Arg-OH						IC50 (C5aR; examples of WO 90/09162, read-out: IC50 (binding), WO 90/09162): 11 nM
CCCC[C@@H]1NC(=O)[C@H](Cc2c[nH]c3ccccc23)NC(=O)[C@@H](CC2CCCCC2)NC(=O)[C@@H]2CCCN2C(=O)[C@@H](NC(=O)[C@H](Cc2ccccc2)NC(=O)CON=CC(O)C(O)C(O)C(O)CO)CCCNC1=O (single isomer, unassigned) [Compound 3, HOCH2(CHOH)4—C═N—O—CH2—CO-Phe-[Orn-Pro-cha-Trp-Nle]]		noteworthy inhibitory activity	pure antagonists	50 to 200	> 1430	
CC(=O)N[C@@H](Cc1ccccc1)C(=O)N[C@@H](CCCN)C(=O)N1CCC[C@H]1C(=O)N[C@H](CC1CCCCC1)C(=O)N[C@@H](Cc1csc2ccccc12)C(=O)N[C@@H](Cc1ccccc1)C(N)=O [Compound 62, Ac-Phe-Orn-Pro-cha-Bta-Phe-NH2] (Ac-F[Orn]P[dCha][Bta]F-NH2)			pure antagonists	20 to 50	> 100000	
CC(=O)N[C@@H](Cc1ccccc1)C(=O)N[C@@H](CCCNC1=NCCN1)C(=O)N1CCC[C@H]1C(=O)N[C@H](CC1CCCCC1)C(=O)N[C@@H](Cc1csc2ccccc12)C(=O)N[C@@H](Cc1ccccc1)C(N)=O [Compound 150, Ac-Phe-Arg(CH2—CH2)-Pro-cha-Bta-Phe-NH2] (Ac-F[Orn(2-imidazolinyl)]P[dCha][Bta]F-NH2)		noteworthy inhibitory activity	pure antagonists	5 to 10		
C=CC[C@@H]1NC(=O)[C@H](Cc2c[nH]c3ccccc23)NC(=O)[C@@H](CC2CCCCC2)NC(=O)[C@@H]2CCCN2C(=O)[C@@H](NC(=O)[C@H](Cc2ccccc2)NC(C)=O)CCCNC1=O [Compound 33, Ac-Phe-[Orn-Pro-cha-Trp-Eaf]] (Ac-F[Orn]P[dCha]W[AllylGly]; lactam 2-C)		without significant loss of activity	pure antagonists	5 to 10	> 1430	inhibitory activity (in words) (human C5aR(CD88) [2]; listed as Ac-Phe-[Orn-Pro-cha-Trp-Eaf]): noteworthy inhibitory activity
(N-Methyl)Phe-Lys-Pro-cha-Phe-Phenylbutanoyl						IC50 (C5aR; [4]): 2600 nM
CC(=O)N[C@@H](Cc1ccccc1)C(=O)N[C@H]1CCCNC(=O)[C@H](CCCNC(=N)N)NC(=O)[C@H](Cc2c[nH]c3ccccc23)NC(=O)[C@@H](CC2CCCCC2)NC(=O)[C@@H]2CCCN2C1=O [Compound 40, Ac-Phe-[Orn-Pro-cha-Trp-Arg], reference compound]	94 % of 200 μM					solubility in aqueous HEPES buffer (pH 7.4) [1]: 94%
CCCC[C@@H]1NC(=O)[C@H](Cc2c[nH]c3ccccc23)NC(=O)[C@@H](CC2CCCCC2)NC(=O)[C@@H]2CCCN2C(=O)[C@@H](NC(=O)[C@H](Cc2ccccc2)NC(C)=O)CCCNC1=O [Compound 28, Ac-Phe-[Orn-Pro-cha-Trp-Nle]] (Ac-F[Orn]P[dCha]W[Nle]; lactam 2-C)	22 % of 200 μM	without significant loss of activity		20 to 50	> 1430	solubility in aqueous HEPES buffer (pH 7.4) [1]: 22%; inhibitory activity (in words) (human C5aR(CD88) [2]; listed as Ac-Phe-[Orn-Pro-cha-Trp-Nle]): noteworthy inhibitory activity
CC(=O)N[C@@H](Cc1ccccc1)C(=O)N[C@@H](CCCNC(=N)N)C(=O)N1CCC[C@H]1C(=O)N[C@H](CC1CCCCC1)C(=O)N[C@@H](Cc1c[nH]c2ccccc12)C(=O)N[C@@H](Cc1ccccc1)C(N)=O [Compound 88, Ac-Phe-Arg-Pro-cha-Trp-Phe-NH2] (Ac-FRP[dCha]WF-NH2)			pure antagonists	20 to 50	> 100000	
CC(=O)N[C@@H](Cc1ccccc1)C(=O)N[C@@H](CCCN)C(=O)N1CC[C@H]1C(=O)N[C@H](CC1CCCCC1)C(=O)N[C@@H](Cc1c[nH]c2ccccc12)C(=O)N[C@@H](Cc1ccccc1)C(N)=O [Compound 83, Ac-Phe-Orn-Aze-cha-Trp-Phe-NH2] (Ac-F[Orn][Aze][dCha]WF-NH2)			pure antagonists	20 to 50	> 100000	
CCCC[C@@H]1NC(=O)[C@H](Cc2c[nH]c3ccccc23)NC(=O)[C@@H](CC2CCCCC2)NC(=O)[C@@H]2CCCN2C(=O)[C@@H](NC(=O)[C@@H](N)Cc2ccccc2)CCCNC1=O [Compound 42, H-Phe-[Orn-Pro-cha-Trp-Nle]] (H-F[Orn]P[dCha]W[Nle]; lactam 2-C)	45 % of 200 μM	noteworthy inhibitory activity	pure antagonists	10 to 20	> 1430	
